The target of one data set is T1, NMDAR2A (Homo sapiens, UniProt Q12879).
T1 construct: expressed in transfected cells; host or cells: HEK cells (membrane extract)
As to the kind of experiment: [3H]MK-801 binding in NMDAR expressing HEK cell membranes (facilitation of NMDAR activation). The following applies: 50 μM glutamate; for EC50: read-out: B: log EC50 (converted); for Emax: 0.25 h, read-out: A: % maximal [3H]MK-801 binding relative to 1 mM glycine. The format is biochemical. On the procedure: (§1) Assays were conducted as described by Moskal et al., “GLYX-13: a monoclonal antibody-derived peptide that acts as an N-methyl-D-aspartate receptor modulator,” Neuropharmacology, 49, 1077-87, 2005. These studies were designed to determine if the test compounds act to facilitate NMDAR activation in NMDAR2A, NMDAR2B, NMDAR2C or NMDAR2D expressing HEK cell membranes as measured by increases in [^3H]MK-801 binding.
(§2) In the assay, 300 μg of NMDAR expressing HEK cell membrane extract protein was preincubated for 15 minutes at 25° C. in the presence of saturating concentrations of glutamate (50 μM) and varying concentrations of test compound (1×10^15M−1×10^−7M), or 1 mM glycine. Following the addition of 0.3 μCi of [^3H]MK-801 (22.5 Ci/mmol), reactions were again incubated for 15 minutes at 25° C. (nonequilibrium conditions). Bound and free [^3H]MK-801 were separated via rapid filtration using a Brandel apparatus.
(§3) In analyzing the data, the DPM (disintegrations per minute) of [^3H]MK-801 remaining on the filter were measured for each concentration of test compound or for 1 mM glycine. The DPM values for each concentration of a ligand (N=2) were averaged. The baseline value was determined from the best fit curve of the DPM values modeled using the GraphPad program and the log(agonist) vs. response (three parameters) algorithm was then subtracted from all points in the dataset. The % maximal [^3H]MK-801 binding was then calculated relative to that of 1 mM glycine: all baseline subtracted DPM values were divided by the average value for 1 mM glycine. The EC50 and % maximal activity were then obtained from the best fit curve of the % maximal [^3H]MK-801 binding data modelled using the GraphPad program and the log(agonist) vs. response (three parameters) algorithm.
(§4) The tables below summarize the results for the wild type NMDAR agonists NMDAR2A, NMDAR2B, NMDAR2C, and NMDAR2D, and whether the compound is not an agonist (−), is an agonist (+), or is a strong agonist (++), where column A is based on the % maximal [^3H]MK-801 binding relative to 1 mM glycine (−=0; <100%=+; and >100%=++); and column B is based on log EC50 values (0=−; ≥1×10^−9 M (e.g., −8)=+; and <1×10^−9 M (e.g., −10)=++).

The next data set concerns the target T2, NMDAR2B (Homo sapiens, UniProt Q13224).
T2 construct: expressed in transfected cells; host or cells: HEK cells (membrane extract)
The description is as above. Format: biochemical. The following applies: 50 μM glutamate; for Emax: 0.25 h, read-out: A: % maximal [3H]MK-801 binding relative to 1 mM glycine; for EC50: read-out: B: log EC50 (converted). On the procedure:
as §1, §2, §3, §4

Another data set can be described thus: IV pharmacokinetics. Format: in vivo, Sprague Dawley rats. The following applies: rat, normal saline (* in 5% NMP, 5% Solutol HS, 90% normal saline); for AUC(0-t) / half-life / C0 / Vd: Sprague-Dawley, in vivo; for C0: read-out: C0; for Vd: read-out: Vss. From the text: The table below summarizes the results of the IV pharmacokinetics.
Data set [1] can be described thus: oral pharmacokinetics (plasma, brain, CSF). Format: in vivo, Sprague Dawley rats. The following applies: rat, per os 10 mg/kg; for AUC(0-t) / bioavailability / Tmax / Cmax: Sprague-Dawley, plasma, po; for Tmax: normal saline (* in 5% NMP, 5% Solutol HS, 90% normal saline), read-out: Tmax; for Cmax: read-out: Cmax.
Procedure: In another experiment, Sprague Dawley rats were dosed per os using a normal saline formulation containing 10 mg/kg of the compounds identified in the table below (except for the compounds marked with an asterisk (“*”) that were delivered in 5% NMP, 5% Solutol® HS and 90% normal saline formulation). Plasma, brain, and CSF samples were analyzed at various time points over a 24 hour period.

Where two headings read alike, the source gives them in different places. Some results are limits rather than exact numbers.

T1 sequence (Q12879 23-1464, species assumed, other chains not shown): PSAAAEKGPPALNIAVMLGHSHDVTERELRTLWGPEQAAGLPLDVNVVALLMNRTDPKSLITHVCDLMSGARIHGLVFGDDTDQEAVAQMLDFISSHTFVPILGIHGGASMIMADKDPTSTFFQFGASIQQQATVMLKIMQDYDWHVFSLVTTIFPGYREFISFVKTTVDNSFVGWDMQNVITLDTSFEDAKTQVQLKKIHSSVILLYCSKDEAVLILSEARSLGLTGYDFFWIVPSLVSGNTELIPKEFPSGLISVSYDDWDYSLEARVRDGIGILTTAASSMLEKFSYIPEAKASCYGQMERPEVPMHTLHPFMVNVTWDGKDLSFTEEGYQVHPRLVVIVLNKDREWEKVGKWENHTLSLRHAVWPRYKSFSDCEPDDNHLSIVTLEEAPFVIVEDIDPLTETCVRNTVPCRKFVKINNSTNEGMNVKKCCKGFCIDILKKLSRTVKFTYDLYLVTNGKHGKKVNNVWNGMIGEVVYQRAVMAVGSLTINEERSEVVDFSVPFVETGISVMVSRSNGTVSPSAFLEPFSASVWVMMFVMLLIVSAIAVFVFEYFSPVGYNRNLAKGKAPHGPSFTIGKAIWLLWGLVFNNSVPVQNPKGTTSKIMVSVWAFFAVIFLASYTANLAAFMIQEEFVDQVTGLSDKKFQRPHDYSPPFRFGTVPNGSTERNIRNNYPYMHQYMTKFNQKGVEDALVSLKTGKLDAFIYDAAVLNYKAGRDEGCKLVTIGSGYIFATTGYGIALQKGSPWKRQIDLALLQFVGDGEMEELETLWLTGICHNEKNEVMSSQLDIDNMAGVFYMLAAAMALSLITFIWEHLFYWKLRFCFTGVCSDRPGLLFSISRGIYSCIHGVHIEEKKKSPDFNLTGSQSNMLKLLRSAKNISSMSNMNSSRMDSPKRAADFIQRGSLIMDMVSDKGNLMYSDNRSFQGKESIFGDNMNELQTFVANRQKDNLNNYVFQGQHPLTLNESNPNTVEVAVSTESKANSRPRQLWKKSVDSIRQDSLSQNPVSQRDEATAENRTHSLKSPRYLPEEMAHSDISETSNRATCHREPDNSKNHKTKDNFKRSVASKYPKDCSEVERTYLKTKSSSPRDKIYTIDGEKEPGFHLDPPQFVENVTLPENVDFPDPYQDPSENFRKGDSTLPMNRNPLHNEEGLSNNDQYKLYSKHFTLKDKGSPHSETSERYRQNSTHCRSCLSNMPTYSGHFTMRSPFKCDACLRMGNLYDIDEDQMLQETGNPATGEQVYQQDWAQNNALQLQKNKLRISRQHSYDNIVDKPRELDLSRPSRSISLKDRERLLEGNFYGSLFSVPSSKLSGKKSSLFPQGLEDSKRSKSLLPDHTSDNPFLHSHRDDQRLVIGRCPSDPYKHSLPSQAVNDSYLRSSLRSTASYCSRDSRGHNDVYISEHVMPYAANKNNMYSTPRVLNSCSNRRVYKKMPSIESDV
T2 sequence (Q13224 27-1484, species assumed, other chains not shown): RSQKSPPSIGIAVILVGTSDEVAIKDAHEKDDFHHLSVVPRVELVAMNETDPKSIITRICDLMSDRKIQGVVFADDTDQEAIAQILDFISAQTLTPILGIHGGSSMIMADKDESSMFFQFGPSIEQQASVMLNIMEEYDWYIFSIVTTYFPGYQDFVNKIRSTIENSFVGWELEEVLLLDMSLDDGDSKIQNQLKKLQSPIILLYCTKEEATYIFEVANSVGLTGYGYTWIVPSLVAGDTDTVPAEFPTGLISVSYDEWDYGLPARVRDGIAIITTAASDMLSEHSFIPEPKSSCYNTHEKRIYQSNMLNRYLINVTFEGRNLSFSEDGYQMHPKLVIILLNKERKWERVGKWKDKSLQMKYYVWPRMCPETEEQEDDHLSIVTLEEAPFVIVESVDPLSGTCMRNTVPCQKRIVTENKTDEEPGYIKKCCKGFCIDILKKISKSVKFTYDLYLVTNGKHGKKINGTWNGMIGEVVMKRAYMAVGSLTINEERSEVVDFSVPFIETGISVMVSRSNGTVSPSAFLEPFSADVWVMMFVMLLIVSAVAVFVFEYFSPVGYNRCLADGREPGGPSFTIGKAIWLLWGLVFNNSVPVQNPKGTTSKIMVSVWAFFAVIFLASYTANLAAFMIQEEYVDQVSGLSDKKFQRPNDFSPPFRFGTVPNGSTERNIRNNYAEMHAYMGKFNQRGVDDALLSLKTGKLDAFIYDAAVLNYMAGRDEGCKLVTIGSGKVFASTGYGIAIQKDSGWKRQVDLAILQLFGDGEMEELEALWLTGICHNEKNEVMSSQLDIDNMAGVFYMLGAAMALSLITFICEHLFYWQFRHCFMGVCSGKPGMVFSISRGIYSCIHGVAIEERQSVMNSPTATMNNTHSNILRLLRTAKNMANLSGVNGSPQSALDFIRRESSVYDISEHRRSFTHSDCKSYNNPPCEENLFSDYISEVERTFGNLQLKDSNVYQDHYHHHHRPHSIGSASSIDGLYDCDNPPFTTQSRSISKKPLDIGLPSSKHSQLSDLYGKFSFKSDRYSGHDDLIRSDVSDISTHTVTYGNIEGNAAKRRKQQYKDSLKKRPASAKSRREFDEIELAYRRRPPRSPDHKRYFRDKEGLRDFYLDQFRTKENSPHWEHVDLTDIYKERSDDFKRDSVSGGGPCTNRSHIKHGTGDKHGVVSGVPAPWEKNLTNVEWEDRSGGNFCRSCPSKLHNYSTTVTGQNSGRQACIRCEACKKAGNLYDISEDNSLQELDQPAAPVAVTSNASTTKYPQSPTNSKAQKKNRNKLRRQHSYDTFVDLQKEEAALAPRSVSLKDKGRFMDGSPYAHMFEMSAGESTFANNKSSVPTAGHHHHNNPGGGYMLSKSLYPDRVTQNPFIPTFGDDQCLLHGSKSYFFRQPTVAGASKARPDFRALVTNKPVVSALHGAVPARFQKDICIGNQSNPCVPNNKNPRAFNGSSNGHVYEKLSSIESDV

`CC1CCC2(CC1)CN([C@H](C(N)=O)[C@@H](C)O)C2=O` (mixture of isomers) [Compound AN, (2S,3R)-3-hydroxy-2-(7-methyl-1-oxo-2-azaspiro[3.5]nonan-2-yl)butanamide]: at NMDAR2A, the EC50 (in general, the concentration that produces a half-maximal response) was less than 1 nM and the Emax was less than 100%. For the same molecule, the Emax at NMDAR2B was found to be 0%. In “IV pharmacokinetics” (iv, 2 mg/kg), the AUC(0-t) (as a rule, exposure summed from dosing to a finite time, without extrapolation to infinity) came out at 1470 ng·h/mL; the half-life (usually the time needed for the level to fall by half in the phase considered) was 19.2 min; the C0 worked out at 3100 ng/mL; the Vd was determined as 0.59 L/kg. The molecule further returned a CI in the data set “IV pharmacokinetics” (intravenous 2 mg/kg) of 22.44 mL/min/kg. Moreover, in data set [1] (10 mg/kg), the AUC(0-t) was determined as 4850 ng·h/mL; the bioavailability – broadly, the share of a dose that reaches the circulation, judged against a reference dose that is usually intravenous – worked out at 66%; the Tmax (in general, the time from dosing to the highest level) amounted to 15 min; the Cmax – broadly, the highest concentration seen after dosing – came to 4330 ng/mL. For the same molecule, in data set [1], the “CSF Cmax” value turned out to be 1384.82 ng/mL and the “Brain Cmax” value is recorded as 1501.76 ng/mL.
With `COc1ccc(CN2CC3(CCC(OCc4ccccc4)CC3)C2=O)cc1` (single isomer, unassigned) [AE, 7-(benzyloxy)-2-(4-methoxybenzyl)-2-azaspiro[3.5]nonan-1-one], on NMDAR2A, the “A: % maximal [3H]MK-801 binding relative to 1 mM glycine” value was “+ (<100%=+)” and the EC50 was less than 1 nM. Moreover, the “A: % maximal [3H]MK-801 binding relative to 1 mM glycine” value on NMDAR2B is “− (−=0)”.
Take `COc1ccc(CN2CC3(CCC(OCc4ccccc4)CC3)C2=O)cc1` (single isomer, unassigned) [AF, 7-(benzyloxy)-2-(4-methoxybenzyl)-2-azaspiro[3.5]nonan-1-one]: at NMDAR2A, the “A: % maximal [3H]MK-801 binding relative to 1 mM glycine” value was “− (−=0)”. Also, on NMDAR2B, the “A: % maximal [3H]MK-801 binding relative to 1 mM glycine” value was “+ (<100%=+)” and the EC50 was less than 1 nM.
With `CC1CCC2(CC1)CN(C(CCC(N)=O)C(N)=O)C2=O` (single isomer, unassigned) [BE, 2-(7-methyl-1-oxo-2-azaspiro[3.5]nonan-2-yl)pentanediamide], the “A: % maximal [3H]MK-801 binding relative to 1 mM glycine” value at NMDAR2A is recorded as “− (−=0)”. On NMDAR2B, the EC50 was less than 1 nM and the Emax was less than 100%.
As for `CC1CCC2(CC1)CN(C(CO)C(=O)O)C2=O` (single isomer, unassigned) [EM, 3-hydroxy-2-(7-methyl-1-oxo-2-azaspiro[3.5]nonan-2-yl)propanoic acid], at NMDAR2A, the EC50 was less than 1 nM and the Emax is less than 100%. Further, the “A: % maximal [3H]MK-801 binding relative to 1 mM glycine” value at NMDAR2B is recorded as “− (−=0)”.
Consider `CC1CCC2(CC1)CN(C(CO)C(=O)O)C2=O` (single isomer, unassigned) [EN, 3-hydroxy-2-(7-methyl-1-oxo-2-azaspiro[3.5]nonan-2-yl)propanoic acid], for which, at NMDAR2A, the “A: % maximal [3H]MK-801 binding relative to 1 mM glycine” value was “+ (<100%=+)” and the EC50 was less than 1 nM. In addition, at NMDAR2B, the “A: % maximal [3H]MK-801 binding relative to 1 mM glycine” value is given as “+ (<100%=+)” and the EC50 is less than 1 nM. In addition, in “IV pharmacokinetics” (iv, 2 mg/kg), the AUC(0-t) amounted to 1760 ng·h/mL, the half-life is 440 min, the C0 was 9440 ng/mL and the Vd worked out at 1.16 L/kg. Also, the CI in the data set “IV pharmacokinetics” (intravenous 2 mg/kg) turned out to be 19.38 mL/min/kg. Further, in data set [1] (10 mg/kg), the AUC(0-t) is 2210 ng·h/mL, the bioavailability is 25%, the Tmax came out at 15 min and the Cmax worked out at 1490 ng/mL. Moreover, in data set [1], the “CSF Cmax” value amounted to 22 ng/mL and the “Brain Cmax” value was 61 ng/mL.
Regarding `O=C1NCC12CCC(OCc1ccccc1)CC2` (centres unmarked) [AJ, 7-(benzyloxy)-2-azaspiro[3.5]nonan-1-one], the Emax at NMDAR2A and on NMDAR2B was 0% in each case.
In the case of `O=C1NCC12CCC(O)CC2` (centres unmarked) [AK, 7-hydroxy-2-azaspiro[3.5]nonan-1-one], at NMDAR2A, the Emax stood at 0%. Also, at NMDAR2B, the “A: % maximal [3H]MK-801 binding relative to 1 mM glycine” value is “− (−=0)”.
On to `COc1ccc(CN2CC3(CCC(C)CC3)C2=O)cc1` (centres unmarked) [Compound AC, 2-(4-methoxybenzyl)-7-methyl-2-azaspiro[3.5]nonan-1-one], for which the Emax on NMDAR2A and at NMDAR2B was 0% throughout.
Regarding `C[C@@H](O)[C@@H](C(N)=O)N1CC2(CCC(O)CC2)C1=O` (stereo partly drawn) [Compound AM, (2S,3R)-3-hydroxy-2-(7-hydroxy-1-oxo-2-azaspiro[3.5]nonan-2-yl)butanamide], the Emax on NMDAR2A and on NMDAR2B was 0% each time.
For the molecule `CC1CCC2(CC1)CN(CC(N)=O)C2=O` (centres unmarked) [Compound BC, 2-(7-methyl-1-oxo-2-azaspiro[3.5]nonan-2-yl)acetamide], at NMDAR2A, the EC50 is less than 1 nM and the Emax is less than 100%. Also, the Emax at NMDAR2B turned out to be 0%. Also, in “IV pharmacokinetics” (iv, 2 mg/kg), the AUC(0-t) amounted to 233 ng·h/mL, the half-life was 13.2 min, the C0 was 658 ng/mL and the Vd was 2.67 L/kg. In addition, the CI in “IV pharmacokinetics” (intravenous 2 mg/kg) is listed as 145.13 mL/min/kg. In addition, in data set [1] (10 mg/kg), the AUC(0-t) stood at 612 ng·h/mL, the bioavailability amounted to 52%, the Tmax turned out to be 15 min and the Cmax was found to be 869 ng/mL. In data set [1], the “CSF Cmax” value was 1362 ng/mL and the “Brain Cmax” value is recorded as 2321 ng/mL.
On to `CC1CCC2(CC1)CN([C@@H](CCC(=O)O)C(=O)O)C2=O` (stereo partly drawn) [EQ, (S)-2-(7-methyl-1-oxo-2-azaspiro[3.5]nonan-2-yl)pentanedioic acid], for which, on NMDAR2A, the EC50 is less than 1 nM and the Emax is less than 100%. In addition, the Emax at NMDAR2B came to 0%.
As to `O=C1NCC12CCC(NCc1ccccc1)CC2` (centres unmarked) [EX], at NMDAR2A, the EC50 was less than 1 nM and the Emax is less than 100%. Further, on NMDAR2B, the EC50 is less than 1 nM and the Emax was greater than 100%. In the data set “IV pharmacokinetics” (intravenous 2 mg/kg), the AUC(0-t) stood at 659 ng·h/mL, the half-life is 70.8 min, the C0 is 1340 ng/mL and the Vd turned out to be 2.71 L/kg. In “IV pharmacokinetics” (intravenous 2 mg/kg), this molecule gave a CI of 50.52 mL/min/kg. Further, in data set [1], the bioavailability came out at 100%, the Tmax was 120 min, the AUC(0-t) turned out to be 7380 ng·h/mL and the Cmax was 3190 ng/mL. In addition, in data set [1], the “CSF Cmax” value stood at 459.46 ng/mL and the “Brain Cmax” value is given as 2799.98 ng/mL.
With `CN(Cc1ccccc1)C1CCC2(CC1)CNC2=O` (centres unmarked) [EZ], on NMDAR2A, the “A: % maximal [3H]MK-801 binding relative to 1 mM glycine” value is on record as “+ (<100%=+)” and the EC50 was less than 1 nM. In addition, on NMDAR2B, the “A: % maximal [3H]MK-801 binding relative to 1 mM glycine” value is reported as “+ (<100%=+)” and the EC50 was less than 1 nM.
In the case of `CCN(Cc1ccccc1)C1CCC2(CC1)CNC2=O` (centres unmarked) [FA], the “A: % maximal [3H]MK-801 binding relative to 1 mM glycine” value on NMDAR2A and on NMDAR2B was “− (−=0)” each time.
For the molecule `O=C1N(OCc2ccccc2)CC12CCC(O)CC2` (centres unmarked) [FE], on NMDAR2A, the “A: % maximal [3H]MK-801 binding relative to 1 mM glycine” value is “+ (<100%=+)” and the EC50 is less than 1 nM. Further, the Emax on NMDAR2B stood at 0%.
`O=C1N(OCc2ccccc2)CC12CCC(O)CC2` (centres unmarked) [FF]: the “A: % maximal [3H]MK-801 binding relative to 1 mM glycine” value on NMDAR2A and on NMDAR2B was “− (−=0)” throughout.

Source of the values: patent US10961189B2, “Spiro-lactam NMDA receptor modulators and uses thereof” (Aptinyx Inc., priority 2016, dated 2021).
